Source: patent US8815241B2, “Use of combination of anti-angiogenic substance and c-kit kinase inhibitor” (Eisai R&D Management Co., Ltd., priority 2005, dated 2014)

System: Human gastrointestinal stromal tumor cell line GIST882
Assay: Human cancer cell line subcutaneous xenograft model (GIST882 in nude mouse), combined use
Type: in vivo
Conditions: once a day, for two weeks, orally
Description: Human gastrointestinal stromal tumor cell line GIST882 (supplied by The Brigham and Women's Hospital, Inc.) was cultured in RPMI1640 (containing 10% FBS) in a 5% carbon dioxide incubator to about 80% confluence. Following cultivation, each cell was collected by trypsin-EDTA treatment according to a general method. Using a phosphate buffer containing 50% matrigel, 5×10^7 cells/mL suspension was prepared, and 0.2 mL each of the resulting cell suspension was subcutaneously transplanted into the flank of a nude mouse. Starting from twenty-one days after the transplantation, 4-(3-chloro-4-(cyclopropylaminocarbonyl)aminophenoxy)-7-methoxy-6-quinolinecarboxamide (10 mg/kg or 30 mg/kg, once a day, for two weeks) and imatinib (160 mg/kg, twice a day, for two weeks) were orally administered alone or in combination. […] Tumor Volume (TV)=Major axis of tumor (mm)×(Minor axis of tumor)^2 (mm^2)/2 Relative Tumor Volume (RTV)=Tumor volume on measurement day/Tumor volume on the first administration day

## COc1cc2nccc(Oc3ccc(NC(=O)NC4CC4)c(Cl)c3)c2cc1C(N)=O [Compound A, 4-(3-chloro-4-(cyclopropylaminocarbonyl)aminophenoxy)-7-methoxy-6-quinolinecarboxamide]
Compound A 10 mg/kg alone
  Relative tumor volume on Day 15, Average ± standard deviation: 2.06 ± 0.16
Compound A 30 mg/kg alone
  Relative tumor volume on Day 15, Average ± standard deviation: 1.36 ± 0.13
